# Results as given in patent US9980973B2, “Bicyclic heterocycle compounds and their uses in therapy” (ASTEX THERAPEUTICS LIMITED, priority 2012, dated 2018).
# Counter-ions that a name gives are not always drawn. Like-named read-outs stand apart in the source and are kept apart here.
# Tests used:
# [1] = target: T1, BIR3 domain of human XIAP (Homo sapiens, UniProt P98170); assay: XIAP in vitro competitive displacement binding assay (fluorescence polarization); conditions: for inhibition at 0.04 µM: 1 h, PI at 0.04 μM, read-out: Xiap IC50 or PI μM (PI)
# T1 construct: BIR3 domain of human XIAP (residues 252-350) fused to a His-tag; His-tag (cleaved yes); made in house; host or cells: Escherichia coli
# T1 sequence (P98170 252-350): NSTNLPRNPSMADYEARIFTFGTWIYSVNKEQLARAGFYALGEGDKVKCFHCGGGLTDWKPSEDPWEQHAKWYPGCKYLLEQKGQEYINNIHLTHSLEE
# [2] = system: EVSA-T (human breast carcinoma); assay: Anti-proliferative activity, Alamar Blue assay, EVSA-T; type: cell-based; conditions: for EC50: Homo sapiens, EVSA-T
# [3] = 72 h, EVSA-T cells, 72 hours, Alamar Blue, read-out: EVSA-T prolif
# [4] = read-out: EC50 in EVSA-T cell line assays
# [5] = plain number = IC50, average where more than one data point, read-out: Xiap IC50 or PI μM (IC50)
SMILES,inhibition at 0.04 µM [1] [%],"EC50 [2, 3] [nM]","EC50 [2, 4] [nM]","IC50 [1, 5] [µM]",EVSA-T prolif (% at concentration) ([2]; at 0.001 μM) [% at],"IC50 ([1]; or at least 50% inhibition of the activity at 0.1 μM, read-out: IC50 in the XIAP assay) [µM]"
"CCCC(F)(F)c1cc2c(cn1)C(C)(C)CN2C(=O)CN1C[C@@H](C)NC[C@@H]1CN1[C@H](C)COC[C@H]1C [Example 44, 1-[6-(1,1-Difluorobutyl)-3,3-dimethyl-1H,2H,3H-pyrrolo[3,2-c]pyridin-1-yl]-2-[2R,5R)-2-{[(3R,5R)-3,5-dimethylmorpholin-4-yl]methyl}-5-methylpiperazin-1-yl]ethan-1-one, dihydrochloride]",78,1,< 1000,–,–,–
"CC1COCCN1C[C@H]1CN[C@H](C)CN1CC(=O)N1CC(C)(C)c2ccc(Cc3ccc(F)cc3)cc21 (stereo partly drawn) [Example 45, 1-{6-[(4-Fluorophenyl)methyl]-3,3-dimethyl-2,3-dihydro-1H-indol-1-yl}-2-[(2R,5R)-5-methyl-2-{[(3R)-3-methylmorpholin-4-yl]methyl}piperazin-1-yl]ethan-1-one, dihydrochloride]",52,3.5,< 1000,–,–,–
"C[C@@H]1CN(CC(=O)N2CC(C)(C)c3ncc(Cc4ccc(F)cc4)cc32)[C@@H](CN2CCCNC(=O)C2)CN1 [Example 46, 4-{[(2R,5R)-1-(2-{6-[(4-Fluorophenyl)methyl]-3,3-dimethyl-1H,2H,3H-pyrrolo[3,2-b]pyridin-1-yl}-2-oxoethyl)-5-methylpiperazin-2-yl]methyl}-1,4-diazepan-2-one, dihydrochloride]",–,36,< 1000,0.13,–,–
"C[C@@H]1CN(CC(=O)N2CC(C)(C)c3ncc(Cc4ccc(F)cc4)cc32)[C@@H](CN2C[C@H](C)NC(=O)[C@H]2C)CN1 [Example 48, (3R,6S)-4-{[(2R,5R)-1-(2-(6-[(4-Fluorophenyl)methyl]-3,3-dimethyl-1H,2H,3H-pyrrolo[3,2-b]pyridin-1-yl}-2-oxoethyl)-5-methylpiperazin-2-yl]methyl}-3,6-dimethylpiperazin-2-one, dihydrochloride]",49,4.3,< 1000,–,–,–
"C[C@@H]1CN(CC(=O)N2CC(C)(C)c3ccc(Cc4ccc(F)cc4)cc32)[C@@H](CN2[C@H](C)COC[C@H]2C)CN1 [Example 49, 2-[(2R,5R)-2-{[(3R,5R)-3,5-Dimethylmorpholin-4-yl]methyl}-5-methylpiperazin-1-yl]-1-{6-[(4-fluorophenyl)methyl]-3,3-dimethyl-2,3-dihydro-1H-indol-1-yl]ethan-1-one, dihydrochloride]",44,1.1,< 1000,–,–,–
"C[C@@H]1CN(CC(=O)N2CC(C)(C)c3ncc(Cc4ccc(F)cc4)cc32)[C@@H](CN2CCOC[C@]2(C)CO)CN1 [Example 50, 1-{6-[(4-Fluorophenyl)methyl]-3,3-dimethyl-1H,2H,3H-pyrrolo[3,2-b]pyridin-1-yl}-2-[(2R,5R)-2-{[(3S)-3-(hydroxymethyl)-3-methylmorpholin-4-yl]methyl}-5-methylpiperazin-1-yl]ethan-1-one, dihydrochloride]",44,1.3,< 1000,–,–,–
"C[C@@H]1CN(CC(=O)N2CC(C)(C)c3ncc(Cc4ccc(F)cc4)cc32)[C@@H](CN2CCOC[C@@]2(C)CO)CN1 [Example 51, 1-{6-[(4-Fluorophenyl)methyl]-3,3-dimethyl-1H,2H,3H-pyrrolo[3,2-b]pyridin-1-yl}-2-[(2R,5R)-2-{[(3R)-3-(hydroxymethyl)-3-methylmorpholin-4-yl]methyl}-5-methylpiperazin-1-yl]ethan-1-one, dihydrochloride]",44,2.2,< 1000,–,–,–
"CC(=O)N1CCN(C[C@H]2CN[C@H](C)CN2CC(=O)N2CC(C)(C)c3ncc(Cc4ccc(F)cc4)cc32)[C@H](C)C1 [Example 52, 2-[(2R,5R)-2-{[(2R)-4-Acetyl-2-methylpiperazin-1-yl]methyl}-5-methylpiperazin-1-yl]-1-{6-[(4-fluorophenyl)methyl]-3,3-dimethyl-1H,2H,3H-pyrrolo[3,2-b]pyridin-1-yl}ethan-1-one, dihydrochloride]",49,1,< 1000,–,–,–
"C[C@@H]1CN(CC(=O)N2CC(C)(C)c3ncc(Cc4ccc(F)cc4)cc32)[C@@H](CN2CCN(c3ncccn3)C[C@H]2C)CN1 [Example 53, 1-{6-[(4-Fluorophenyl)methyl]-3,3-dimethyl-1H,2H,3H-pyrrolo[3,2-b]pyridin-1-yl}-2-[(2R,5R)-5-methyl-2-{[(2R)-2-methyl-4-(pyrimidin-2-yl)piperazin-1-yl]methyl}piperazin-1-yl]ethan-1-one, dihydrochloride]",59,0.61,< 1000,–,–,–
"C[C@@H]1CN(CC(=O)N2CC(C)(C)c3ncc(Cc4ccc(F)cc4F)cc32)[C@@H](CN2[C@H](C)COC[C@H]2C)CN1 [Example 54, 1-{6-[(2,4-Difluorophenyl)methyl]-3,3-dimethyl-1H,2H,3H-pyrrolo[3,2-b]pyridin-1-yl}-2-[(2R,5R)-2-{[(3R,5R)-3,5-dimethylmorpholin-4-yl]methyl}-5-methylpiperazin-1-yl]ethan-1-one, dihydrochloride]",59,–,< 1000,–,96,–
"C[C@@H]1CN(CC(=O)N2CC(C)(C)c3cnc(Cc4ccc(F)cc4)cc32)[C@@H](CN2[C@H](C)COC[C@H]2C)CN1 [Example 55, 2-[(2R,5R)-2-{[(3R,5R)-3,5-Dimethylmorpholin-4-yl]methyl}-5-methylpiperazin-1-yl]-1-{6-[(4-fluorophenyl)methyl]-3,3-dimethyl-1H,2H,3H-pyrrolo[3,2-c]pyridin-1-yl}ethan-1-one, dihydrochloride]",59,0.23,< 1000,–,–,–
"CC(=O)N1CCN(C[C@H]2CN[C@H](C)CN2CC(=O)N2CC(C)(C)c3cnc(Cc4ccc(F)cc4)cc32)[C@H](C)C1 [Example 56, 2-[(2R,5R)-2-{[(2R)-4-Acetyl-2-methylpiperazin-1-yl]methyl}-5-methylpiperazin-1-yl]-1-{6-[(4-fluorophenyl)methyl]-3,3-dimethyl-1H,2H,3H-pyrrolo[3,2-c]pyridin-1-yl}ethan-1-one, dihydrochloride]",70,0.42,< 1000,–,–,–
"C[C@@H]1CN(CC(=O)N2CC(C)(C)c3ncc(Cc4ccc(F)cc4F)cc32)[C@@H](CN2CCOC[C@]2(C)CO)CN1 [Example 57, 1-{6-[(2,4-Difluorophenyl)methyl]-3,3-dimethyl-1H,2H,3H-pyrrolo[3,2-b]pyridin-1-yl}-2-[(2R,5R)-2-{[(3S)-3-(hydroxymethyl)-3-methylmorpholin-4-yl]methyl}-5-methylpiperazin-1-yl]ethan-1-one, dihydrochloride]",41,2.6,< 1000,–,–,–
"C[C@@H]1CN(CC(=O)N2CC(C)(C)c3ncc(Cc4ccc(F)cc4F)cc32)[C@@H](CN2CCOC[C@@]2(C)CO)CN1 [Example 58, 1-{6-[(2,4-Difluorophenyl)methyl]-3,3-dimethyl-1H,2H,3H-pyrrolo[3,2-b]pyridin-1-yl}-2-[(2R,5R)-2-{[(3R)-3-(hydroxymethyl)-3-methylmorpholin-4-l]methyl}-5-methylpiperazin-1-yl]ethan-1-one, dihydrochloride]",51,0.7,< 1000,–,–,< 0.1
"C[C@@H]1CN(CC(=O)N2CC(C)(C)c3ncc(Cc4ccc(F)cc4)cc32)[C@@H](CN2CCOCC2(C)C(=O)O)CN1 (stereo partly drawn) [Example 59, 4-{[(2R,5R)-1-(2-{6-[(4-Fluorophenyl)methyl]-3,3-dimethyl-1H,2H,3H-pyrrolo[3,2-b]pyridin-1-yl}-2-oxoethyl)-5-methylpiperazin-2-yl]methyl}-3-methylmorpholine-3-carboxylic acid, dihydrochloride]",–,42,< 1000,0.34,–,–
"CCCC(F)(F)c1cc2c(cn1)C(C)(C)CN2C(=O)CN1C[C@@H](C)NC[C@@H]1CN1CCN(C(C)=O)C[C@H]1C [Example 60, 2-[(2R,5R)-2-{[(2R)-4-Acetyl-2-methylpiperazin-1-yl]methyl}-5-methylpiperazin-1-yl]-1-[6-(1,1-difluorobutyl)-3,3-dimethyl-1H,2H,3H-pyrrolo[3,2-c]pyridin-1-yl]ethan-1-one, dihydrochloride]",74,6.7,< 1000,–,–,–
"C[C@@H]1CN(CC(=O)N2CC(C)(C)c3cnc(Cc4ccc(F)cc4)cc32)[C@@H](CN2CCOC[C@@]2(C)CO)CN1 [Example 62, 1-{6-[(4-Fluorophenyl)methyl]-3,3-dimethyl-1H,2H,3H-pyrrolo[3,2-c]pyridin-1-yl}-2-[(2R,5R)-2-{[(3R)-3-(hydroxymethyl)-3-methylmorpholin-4-yl]methyl}-5-methylpiperazin-1-yl]ethan-1-one, dihydrochloride]",60,1.1,< 1000,–,–,–
"C[C@@H]1CN(CC(=O)N2CC(C)(C)c3nnc(Cc4ccc(F)cc4)cc32)[C@@H](CN2[C@H](C)COC[C@H]2C)CN1 [Example 87, 2-[(2R,5R)-2-{[(3R,5R)-3,5-Dimethylmorpholin-4-yl]methyl}-5-methylpiperazin-1-yl]-1-{3-[(4-fluorophenyl)methyl]-7,7-dimethyl-5H,6H,7H-pyrrolo[3,2-c]pyridazin-5-yl}ethan-1-one dihydrochloride]",–,0.66,< 1000,0.14,–,–
"C[C@@H]1CN(CC(=O)N2CC(C)(C)c3nnc(Cc4ccc(F)cc4F)cc32)[C@@H](CN2[C@H](C)COC[C@H]2C)CN1 [Example 88, 1-{3-[(2,4-Difluorophenyl)methyl]-7,7-dimethyl-5H,6H,7H-pyrrolo[3,2-c]pyridazin-5-yl}-2-[(2R,5R)-2-{[(3R,5R)-3,5-dimethymorpholin-4-yl]methyl}-5-methylpiperazin-1-yl]ethan-1-one dihydrochloride]",–,0.24,< 1000,0.22,–,–
